Results as given in publication PMC3152581 (Journal of natural products, 2010).

Biological target: BACE1 (memapsin-2) (Homo sapiens, UniProt P56817)
Assay: BACE1 assay
Type: biochemical
Conditions: biological screening; result in words

Sequence of BACE1 (memapsin-2) (P56817 46-501): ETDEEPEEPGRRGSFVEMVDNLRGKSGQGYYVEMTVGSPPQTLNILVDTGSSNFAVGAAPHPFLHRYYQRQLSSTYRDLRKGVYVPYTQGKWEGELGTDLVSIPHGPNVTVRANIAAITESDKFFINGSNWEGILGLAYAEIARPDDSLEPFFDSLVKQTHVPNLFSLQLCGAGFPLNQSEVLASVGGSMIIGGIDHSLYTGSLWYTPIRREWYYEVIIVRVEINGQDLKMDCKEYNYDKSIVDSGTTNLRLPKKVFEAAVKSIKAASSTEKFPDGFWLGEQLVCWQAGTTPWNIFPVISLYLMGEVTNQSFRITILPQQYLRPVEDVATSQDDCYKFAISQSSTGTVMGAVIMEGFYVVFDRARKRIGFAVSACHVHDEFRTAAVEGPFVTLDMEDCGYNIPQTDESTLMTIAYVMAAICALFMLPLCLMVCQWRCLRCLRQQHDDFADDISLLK

Inhibition of BACE1 (in words): significantly less active
Compound: C[C@@]12CC[C@H](O)[C@@H]3COC(=C31)C(=O)c1cc3c(OCCO)cccc3cc12 [Compound 1, Xestosaprol F]
